# Test results as given in US12594292B2, “Antiviral prodrugs, intermediate-and long-acting formulations and methods” (priority 2022, dated 2026).
# Where two headings read alike, the source gives them in different places.
# Experiments:
# [1] = tested on: human PBMCs; assay: Cytotoxicity (CC50) in human PBMCs; type: cell-based
# [2] = 42 day pharmacokinetic study after a single IM administration in rats, formulations F3, F4, F7, F8; type: in vivo; details: for time with plasma levels at a virally significant level: rats, IM, only the 100 mg/kg dose, formulation F3
# Protocol: Comparison of Formulations F3, F4, F7 and F8 following a single IM administration in rats—Groups: Vehicle control, 10 mg/kg, 30 mg/kg and 100 mg/kg of formulations 3, 4, 7, 8.
# Procedure: At time zero rats were injected intramuscularly with 100 microliters of vehicle and formulations as noted. […] Blood was obtained at 6, 24 and 48 hours, and at 7, 14, 28, 35 and 42 days and the plasma levels of ODE-Bn-TFV and ODE-TFV (the first metabolite, also an active anti-HIV compound) were determined by LC/MS/MS.
# A 42 days pharmacokinetic study of formulations 3, 4, 7, and 8 of this example in rats was conducted. In the study, 100, 30, and 10 mg/kg of each formulation was administered by intramuscular (IM) injection to male Sprague Dawley rates (100 microliters). […] The rats were subjected to twice weekly clinical observations, and weights were collected.
# [3] = tested on: HFF cells; assay: Persistence of TFVpp in HFF cells after a 3 day exposure
# Excerpt: HFF cells were exposed to 1 micromolar drug for 3 days. At days 0, 1, 2, 4, 7, 14, 21, and 28, cells were trypsinized, counted, and processed for LC/MS measurement of TFVpp. Data were expressed at ftg/cell. nm=not meaningful; ftg—gemtogram.
# [4] = tested on: HIV-1; details: for EC50: HIV infected human PBMCs
# Procedure: Antiviral activities were determined in HIV infected human PBMCs.
# [5] = tested on: HIV-1; details: Beadle et al. Antiviral Res. 2019; cited from earlier work
# [6] = tested on: USA WA-01 strain of SARS CoV-2; assay: Anti-coronavirus activity in Vero E6 cells, qPCR of spike RNA (Example 2); type: cell-based
# Protocol: (§1) Ten thousand Vero E6 cells were seeded in 100 microliters of culture medium in 96 well plates. The following day serial two-fold dilutions of antiviral compounds or the DMSO-containing vehicle were added to each well. The USA WA-01 strain of SARS CoV-2 was added to each well at a multiplicity of infection of 0.1 thirty minutes later. Cells were incubated for 48 hours, washed twice in PBS and lysed with TRIzol. RNA was extracted using Directzol micro RNA columns. RNA was made into cDNA and assayed for the SARS CoV-2 spike protein and for a housekeeping gene (RPLPO) RNA by qPCR. Data represents the average of duplicate wells. Cellular cytotoxicity was also measured in VERO E6 cells. […] Cytotoxicity (CC50) was assessed using a commercially available MTT assay.
# [7] = tested on: VERO E6 cells; assay: Cellular cytotoxicity in Vero E6 cells, MTT assay (Example 2); type: cell-based
# Protocol: as §1
# [8] = tested on: SARS-CoV-2 isolate USA-WA1/2020; assay: SARS-CoV-2 infection in Vero E6 cells, qRT-PCR of Spike RNA (Example 3); type: cell-based
# [9] = tested on: VERO E6 cells; assay: CellTiter-Glo luminescent cell viability assay, Vero E6 (Example 3); type: cell-based
# Protocol: (§2) CellTiter-glo luminescent cell viability assay: Approximately 10^4 Vero E6 cells per well were seeded in opaque walled 96 well cell culture plates and incubated overnight. Compounds or controls were added at the indicated concentrations. […] Viability was calculated compared to untreated controls and CC50 values were calculated using Prism 8.
# (§3) Determination of Cytotoxicity: The 50% cytotoxic concentrations (CC50) were determined with Cell Titer Glo (Cat. #G7570, Promega, Madison, WI) according to the manufacturer's instructions. The calculated CC50 values are shown in the foregoing table.
# (§4) Relative viability was measured by CellTiter-Glo luminescent cell viability assay, as depicted at FIG. 2.
# [10] = tested on: HCoV-229E; type: cell-based, human Coronavirus 229E
# [11] = tested on: Huh7.5 cells; assay: Cytotoxicity in Huh7.5 cells, nuclei count (Example 6); type: cell-based, human
# [12] = tested on: SARS-CoV-2 isolate USA-WA1/2020; assay: SARS-CoV-2 infection in Vero E6 cells, qRT-PCR (Example 7); type: cell-based; details: for Selectivity: CC50/EC50, Vero E6 cells; for EC50 / EC90: Vero E6 cells, MOI 0.01, 48 hours
# [13] = tested on: SARS-CoV-2 isolate USA-WA1/2020; assay: SARS-CoV-2 infection in PSC-human lung cells, qRT-PCR (Example 7); type: cell-based
# [14] = tested on: SARS-CoV-2 isolate USA-WA1/2020; assay: SARS-CoV-2 infection in Calu-3 cells, qRT-PCR (Example 7); type: cell-based
# [15] = tested on: SARS-CoV-2 isolate USA-WA1/2020; assay: SARS-CoV-2 infection in Huh7.5 cells, qRT-PCR (Example 7); type: cell-based; details: for Selectivity: CC50/EC50, Huh7.5 cells
# [16] = tested on: SARS-CoV-2 isolate USA-WA1/2020; assay: SARS-CoV-2 infection in Caco-2 cells, qRT-PCR (Example 7); type: cell-based
# [17] = tested on: MRC-5 cells
# [18] = tested on: Calu-3 cells; assay: Cell viability assay CellTiter-Glo, Calu-3 cells (Example 7); details: Calu-3 cells, CellTiter-Glo
# [19] = tested on: Huh7.5 cells; assay: Cell viability assay CellTiter-Glo, Huh7.5 cells (Example 7)
# [20] = tested on: Caco-2 cells; assay: Cell viability assay CellTiter-Glo, Caco-2 cells (Example 7); details: Caco-2 cells, CellTiter-Glo
# [21] = tested on: VERO E6 cells; assay: Cell viability assay CellTiter-Glo, Vero E6 cells (Example 7)
# [22] = tested on: PSC-human lung cells; assay: Cell viability assay CellTiter-Glo, PSC-human lung cells (Example 7)
# [23] = Cellular cytotoxicity in Vero E6 cells, MTT assay (Example 2); type: cell-based; details: African green monkey
# Protocol: as §1
# [24] = CellTiter-Glo luminescent cell viability assay, Vero E6 (Example 3); type: cell-based; details: African green monkey; Vero E6 cells, Cell Titer Glo, 48.5 hours; read-out: CC50
# Protocol: as §2, §3, §4
# [25] = tested on: VERO E6 cells; assay: Generation of remdesivir triphosphate in Vero E6 cells (LC/MS/MS); type: in vitro ADME; details: 1 micromolar drug, up to 48 hours
# Protocol: In this example, Vero E6 cells were plated in 6 well plates at about 3.4×10^5 cells per well in 2 mL of media (DMEM, 10% FBS).
# Cells were then incubated at 37° C. for 24 hours. Media was then aspirated and replaced with 2 mL of control media (fresh Dulbecco's Modified Eagle's Medium (DMEM), 10% FBS) or 2 mL of media with drug at a concentration of 1 μM. Cell were incubated with the various drugs for 48 hours. The media was aspirated, the cells rinsed twice with phosphate-buffered saline (PBS), trypsinized for 5 minutes with 1 mL ATV, triturated and removed to a 15 mL centrifuge tube, rinsed with 1 mL PBS, which was also then removed to the 15 mL centrifuge tube, and the cells were triturated again. Cells were counted in a Reichert hemocytometer using two 10 μL samples, and the number of cells in each sample was determined.
# Cells were centrifuged at 1200 rpm for 10 minutes, diluent aspirated and the pellet resuspended in 250 μL of methanol/distilled water (70/30) and analyzed by LC/MS/MS. The results, which are depicted at FIG. 3, were in picomoles/10^6 cells and were the average of two or three determinations.
# [26] = after intravenous infusion, reported; cited from earlier work
# [27] = in vitro; details: human
# Procedure: Cells were infected with 229E for 2 hours followed by treatment with the indicated dose of the indicated drug for 72 hours. The relative CPE was determined by measuring cell viability using an MTT assay. depicts the cytotoxicity in MRC-5 cells incubated in the presence of the indicated drug at the indicated concentration for 72 hours, after which cell viability was measured by the CellTiter-Glo assay. Data points indicate the averages from 3 independent experiments performed in duplicate. Error bars represent the standard error mean (SEM).
# [28] = reported, Siegel et al. 2017; cited from earlier work
# [29] = Cell viability assay CellTiter-Glo, Calu-3 cells (Example 7); details: human
# [30] = Cell viability assay CellTiter-Glo, Caco-2 cells (Example 7); details: human
# [31] = parameters: species or system beagle dogs; details: dog, in vivo
# Protocol: Canine Pharmacokinetics of ODE-Bn-TFV in Formulation F3—A 30 day study in beagle dogs was done with 30 mg/kg IM doses of ODE-Bn-TFV in formulation F3.
# [32] = rat, in vivo
# Procedure: Maximal volume IM injections of 100 microliters were given at day 0, 30 and 60 to groups of 3 rats. There were 3 groups of control animals who received monthly injections of F3 vehicle. […] Weights were assessed over the 3-month period. […] Because a constant (maximal) IM volume of 100 microliters was given, the initial dose was 90 mg/kg and the two following injections at days 30 and 60 were lower, 62 mg/kg, due to weight increases of the rats.
# [33] = Vero E6 cells, MOI 0.1, 48 hours
# [34] = Vero E6 cells, MOI 0.01, 48 hours, mean±SD
# [35] = Huh7.5 cells, MOI 0.01, 48 hours, qRT-PCR (Example 7)
# [36] = Caco-2 cells, MOI 0.01, 48 hours
# [37] = Severe acute respiratory syndrome coronavirus 2, Vero C1008
compound,measurement,setting,value
CCCCCCCCCCCCCCCCCCOCCOP(=O)(O)CO[C@H](C)Cn1cnc2c(N)ncnc21 [ODE-TFV],CC50,[1],1.28 µM
same,time with plasma levels at a virally significant level,[2],28 days
same,T1/2 of TFVpp,[3],1.2
same,Tmax of TFVpp,[3],0 days
same,EC50,[4],1.1 nM
same,ED90,[4]; reference line in FIG. 12B,6.3 nm/mL
same,EC90,[5],10 nM
"CCCCCCCCCCCCCCCCCCOCCOP(=O)(O)OC[C@H]1O[C@@](C#N)(c2ccc3c(N)ncnn23)[C@H](O)[C@@H]1O [Compound 4c, 2-(Octadecyloxy)ethyl-phospho-RVn]",Selectivity Index,"[6]; CC50/EC50, Vero E6",>143
same,EC50,[6]; [33],350 nM
same,EC90,[6]; [33],530 nM
same,CC50,[7],> 50 µM
same,Selectivity,"[8]; CC50/EC50, Vero E6",>212
same,EC50,[8]; [34],470 ± 180 nM
same,EC90,[8]; [34],1100 ± 800 nM
same,times more active than RDV,"[8]; based on the EC50 values, Vero E6",9.8
same,CC50,[9],> 100 µM
same,EC50,[10],410 ± 12 nM
same,EC90,[10],840 ± 95 nM
same,CC50,[11],> 20 µM
same,Selectivity,[12],>333
same,EC50,[12],300 nM
same,EC90,[12],0.33 µM
same,Selectivity,"[13]; CC50/EC50, PSC-human lung cells",>454
same,EC90,"[13]; PSC-human lung cells, MOI 0.01, 48 hours",700 nM
same,EC50,"[13]; PSC-human lung cells, MOI 0.01, 48 hours, listed as ODE-P-RVn",220 nM
same,Selectivity,"[14]; CC50/EC50, Calu-3 cells",290
same,EC90,"[14]; Calu-3 cells, MOI 0.01, 48 hours",640 nM
same,EC50,"[14]; Calu-3 cells, MOI 0.01, 48 hours, listed as ODE-P-RVn",340 nM
same,Selectivity,[15],>526
same,EC50,[15]; [35],190 nM
same,EC90,[15]; [35],370 nM
same,EC50,"[15]; Huh7.5 cells, MOI 0.01, 48 hours, qRT-PCR (Example 7), listed as ODE-P-RVn",190 nM
same,Selectivity,"[16]; CC50/EC50, Caco-2 cells",>129
same,EC50,[16]; [36],770 nM
same,EC90,[16]; [36],1250 nM
same,CC50,[17],> 50 µM
same,CC50,[18],98.7 µM
same,CC50,[19],> 100 µM
same,CC50,[20],> 100 µM
same,CC50,[21],> 100 µM
same,CC50,[22],> 100 µM
"CCC(CC)COC(=O)[C@H](C)N[P@](=O)(OC[C@H]1O[C@@](C#N)(c2ccc3c(N)ncnn23)[C@H](O)[C@@H]1O)Oc1ccccc1 [RDV, Remdesivir, reference compound]",CC50,[23],> 50 µM
same,CC50 at 48.5 h,[24],> 100 µM
same,levels of remdesivir triphosphate (RVn-TP),[25],below the level of quantification
same,Selectivity,[12],89.4
same,EC50,[12]; [37],1130 nM
same,EC90,[12]; [37],7.05 µM
same,Selectivity,[15],253
same,time persisting at virologically significant levels in plasma,[26],less than 2 hours
same,CC50,[27],> 50 µM
same,T1/2 ex vivo in human plasma,[28],69 min
same,CC50 at 48.5 h,[29],> 100 µM
same,CC50 at 48.5 h,[30],> 100 µM
Octadecyloxyethyl benzyl tenofovir [ODE-Bn-TFV],CC50,[1],8.72 µM
same,initial plasma values,"[2]; rat, in vivo",~100 ng/mL
same,time with plasma levels at a virally significant level,[2],28 days
same,adverse effects,[31],no adverse effects except for some transient swelling at the injection sites
same,T1/2 of TFVpp,[3],3.7
same,Tmax of TFVpp,[3],2 days
same,EC50,[4],1.7 nM
same,ED90,[4]; reference line in FIG. 12A,10.9 ng/mL
same,Selectivity Index,[4]; variation of the diester substituent of ODE-TFV,5130
same,"clinical observations, metabolic panels, CBCs",[32],no clinical observations of significance
